Like-named read-outs stand apart in the source and are kept apart here.
Assays:
[1] = test system: HepG2 cells; experiment: MTT antiproliferative assay, HepG2 cells; format: cell-based; conditions: for IC50: Homo sapiens, read-out: HepG2 IC50; for HepG2 TI (therapeutic index): ratio of IC50 against WI38 cells to IC50 against HepG2 cells
Source text: (§1) Recently, OSe agents have attracted interest due to their potential chemoprotective and antitumor properties. We have developed several OSe compounds with promising antioxidant, antimicrobial, and antitumor properties. Therefore, we estimated the OSe agents’ antiproliferative activities against different cancer cells, i.e., MCF-7 and HepG2 cells and healthy lung fibroblast WI-38 cells, using the MTT assay. The drug doxorubicin was employed as the standard. The corresponding therapeutic indices (TI) are described as the proportion of the WI38 cells IC50 to the IC50 of the cancer cell (e.g., MCF-7 and HepG2) (Table 1).
(§2) The products’ anticancer activity was examined using the MTT assay against breast (MCF-7) carcinoma cells, liver (HepG2), and normal WI-38 cells, following the previously reported method. Experimental details can be found in the Supplementary Materials.
(§3) 1.1. The biological assays
(§4) 1.1.1. The anticancer activity
(§5) The breast adenocarcinoma (MCF-7), Hepatocellular carcinoma (HEPG-2), and normal fibroblast (WI-38) cells were obtained from ATCC via Holding company for biological products and vaccines (VACSERA), Cairo, Egypt. The reagents […] medium, MTT, DMSO, and fetal bovine serum was obtained from Sigma Aldrich. Dulbecco’s modified Eagle’s medium was used as the culture medium for the cells, and the cytotoxicity was evaluated using the reported MTT assay. Doxorubicin was used as the positive reference, and the IC50 values were obtained from the corresponding dose-response curve.
(§6) This colorimetric assay is based on converting the yellow tetrazolium bromide (MTT) to a purple formazan derivative by mitochondrial succinate dehydrogenase in viable cells. Cell lines were cultured in […] medium with 10% fetal bovine serum. Antibiotics added were 100 units/ml penicillin and 100µg/ml streptomycin at 37 C in a 5% Co2 incubator. The cell lines were seeded in a 96-well plate at a density of 1.0x10^4 cells/well. at 37 C for 48 h under 5% Co2. After incubation, the cells were treated with different concentrations of compounds and incubated for 13 […]
Finally, dimethyl sulfoxide (DMSO) in the volume of 100 µl is added to each well to dissolve the purple formazan formed. The colorimetric assay is measured and recorded at an absorbance of 570 nm using a plate reader (EXL 800, USA). The percentage of the relative cell viability was calculated as (A570 of treated samples/A570 of the untreated sample) X 100. […]

[2] = test system: E. coli; experiment: Agar diffusion assay, E. coli; format: cell-based, Escherichia coli; conditions: for E. coli ZID (inhibition zone diameter): 6-mm disks soaked with 20 μM of the OSe agents; for E. coli IA% (activity index): ratio of inhibition zone of compound to that of positive control (ampicillin)
Source text: (§7) The encouraging antitumor properties of the OSe compounds motivated us to evaluate their corresponding antimicrobial activities against the C. albicans fungal strain, S. aureus Gram-positive bacteria, and E. coli Gram-negative bacteria. Therefore, we applied the agar diffusion and minimum inhibitory concentration (MIC) methods using clotrimazole antifungal and ampicillin antibacterial drugs as standards.
(§8) The products’ antimicrobial properties were examined according to the previously reported method, via agar well diffusion assay against E. coli, S. aureus, and C. albicans. A microdilution method was also used to record MICs (M), following the previously reported procedure. Experimental details can be found in the Supplementary Materials.
1.1. […]
(§9) 1.1.2. The antimicrobial activity
The antimicrobial activities of the OSe compounds were evaluate d against C. albicans yeast as well as E.
coli gram-negative and S. aureus gram-positive bacteria employing the agar well diffusion assay. […]
5 g, and beef extract 3 g) seeded with the dedicated strain. Incubation lasted for 13 h at 36 0C.
Experiments were replicated three times and the antifungal clotrimazole and antibiotic ampicillin
1.1.3. […]

[3] = test system: S. aureus; experiment: Agar diffusion assay, S. aureus; format: cell-based, Staphylococcus aureus; parameters: concentration or dose not given beside the values; conditions: ratio of inhibition zone of compound to that of positive control (ampicillin)
Source text: as §7
as §8, with “Materials. […]” for “Materials.”
as §9
The antimicrobial activities of the OSe compounds were evaluate d against C. albicans yeast as well as E. coli gram-negative and S. aureus gram-positive bacteria employing the agar well diffusion assay.
Briefly, a concentration of 1 mM was prepared for each compound by dissolving in DMSO. Paper discs of standard size […] were sterilized in an autoclave and soaked in 9 µL of the test compounds, and placed in the Petri dishes, which in turn contain a nutrient media (agar 9 g, peptone 5 g, and beef extract 3 g) seeded with the dedicated strain. Incubation lasted for 13 h at 36 0C.
Experiments were replicated three times and the antifungal clotrimazole and antibiotic ampicillin […]

[4] = test system: C. albicans; experiment: Agar diffusion assay, C. albicans; format: cell-based, Candida albicans; conditions: for zone of inhibition at 20 µM: Candida albicans, read-out: C. albicans ZID (inhibition zone diameter); for C. albicans IA% (activity index): ratio of inhibition zone of compound to that of positive control (clotrimazole)
[5] = test system: S. aureus; experiment: Agar diffusion assay, S. aureus; format: cell-based; conditions: Staphylococcus aureus; 6-mm disks soaked with 20 μM of the OSe agents; read-out: S. aureus ZID (inhibition zone diameter)
[6] = test system: MCF-7 cells; experiment: MTT antiproliferative assay, MCF-7 cells; format: cell-based; conditions: for IC50: Homo sapiens, MCF7, 24 h, read-out: MCF7 IC50; for MCF7 TI (therapeutic index): ratio of IC50 against WI38 cells to IC50 against MCF-7 cells
Source text: as §1, with “We have developed several OSe compounds with promising antioxidant, antimicrobial, and antitumor properties.” left out
as §2, §3, §4, §5, §6
(§10) Finally, dimethyl sulfoxide (DMSO) in the volume of 100 µl is added to each well to dissolve the purple formazan formed. The colorimetric assay is measured and recorded at an absorbance of 570 […]
(§11) The percentage of the relative cell viability was calculated as (A570 of treated samples/A570 of the untreated sample) X 100. […]

[7] = test system: WI-38 cells; experiment: MTT cytotoxicity assay, normal lung fibroblast WI-38 cells; format: cell-based; conditions: Homo sapiens, WI-38, 24 h, read-out: WI38 IC50
Source text: as §1, with “We have developed several OSe compounds with promising antioxidant, antimicrobial, and antitumor properties.” left out
as §2, §3, §4, §5, §6, §10, §11

Row | IC50 ([1]; MTT bioassay, HepG2 cells, 24 h incubation) [µM] | Compound | E. coli ZID (inhibition zone diameter) [2] [mm] | E. coli IA% (activity index) [2] [%] | S. aureus IA% (activity index) [3] [%] | zone of inhibition at 20 µM [4] [mm] | C. albicans IA% (activity index) [4] [%] | IC50 ([1]; HepG2, 24 h) [µM] | HepG2 TI (therapeutic index) [1] | zone of inhibition at 20 µM [5] [mm] | IC50 [6] [µM] | MCF7 TI (therapeutic index) [6] | IC50 [7] [µM]
1 | 4.5 ± 0.2 | COc1cccc2c1C(=O)c1c(O)c3c(c(O)c1C2=O)C[C@@](O)(C(=O)CO)C[C@@H]3O[C@H]1C[C@H](N)[C@H](O)[C@H](C)O1 [Adriamycin, doxorubicin, reference compound] | – | – | – | – | – | – | – | – | – | – | –
2 | – | O=C(O)C=CC(=O)Nc1ccc([Se]CC(=O)NOCc2ccccc2)cc1 [Compound 12, 4-((4-((2-((Benzyloxy)amino)-2-oxoethyl)selanyl)phenyl)amino)-4-oxobut-2-enoic Acid] | 4 | 17.4 | 23.8 | 10 | 41.7 | 72.9 ± 3.7 | 0.5 | 5 | 63 ± 3.8 | 0.6 | 36.5 ± 2.4
3 | – | CC1(C)S[C@@H]2[C@H](NC(=O)[C@H](N)c3ccccc3)C(=O)N2[C@H]1C(=O)O [Ampicillin, ampicillin, reference compound] | 23 | 100 | 100 | – | – | – | – | 21 | – | – | –
4 | – | O=C(O)CCC(=O)Nc1ccc([Se]CC(=O)NOCc2ccccc2)cc1 [Compound 11, 4-((4-((2-((Benzyloxy)amino)-2-oxoethyl)selanyl)phenyl)amino)-4-oxobutanoic Acid] | 7 | 30.4 | 47.6 | 13 | 54.2 | 48.8 ± 2.8 | 1.1 | 10 | 35 ± 2.5 | 1.5 | 52.5 ± 3.2
5 | – | O=C(C[Se]c1ccc(NC(=O)CCl)cc1)NOCc1ccccc1 [Compound 14, N-(benzyloxy)-2-((4-(2-chloroacetamido)phenyl)selanyl)acetamide] | – | – | – | 4 | 16.7 | > 100 | – | – | 87.4 ± 4.1 | 1.1 | > 100
6 | – | CCOC(=O)C(C#N)=NNc1ccc([Se]CC(=O)NOCc2ccccc2)cc1 [Compound 15, Ethyl 2-(2-(4-((2-((benzyloxy)amino)-2-oxoethyl)selanyl)phenyl)hydrazineylidene)-2-cyanoacetate] | 12 | 52.2 | 71.4 | 20 | 83.3 | 15.8 ± 1.3 | 5.2 | 15 | 21.6 ± 1.6 | 3.8 | 82 ± 4.6
7 | – | CC(=O)Nc1ccc([Se]CC(=O)NOCc2ccccc2)cc1 [Compound 9, 2-((4-Acetamidophenyl)selanyl)-N-(benzyloxy)acetamide] | 6 | 26.1 | 33.3 | 9 | 37.5 | 53 ± 3.2 | 1.6 | 7 | 45.6 ± 2.9 | 1.9 | 84.8 ± 4.8
8 | – | O=C(C[Se]c1ccc(N=Nc2ccc(O)cc2)cc1)NOCc1ccccc1 [Compound 16, N-(benzyloxy)-2-((4-((4-hydroxyphenyl)diazenyl)phenyl)selanyl)acetamide] | 9 | 39.1 | 52.4 | 16 | 66.7 | 26.5 ± 2 | 2.4 | 11 | 33.7 ± 2.4 | 1.9 | 64.2 ± 3.9
